# Data published in patent US10869904B2, “Pharmaceutical composition for preventing or treating respiratory disease comprising extract of Justicia procumbens L” (DONG WHA PHARM. CO., LTD., priority 2016, dated 2020).
# Like-named read-outs stand apart in the source and are kept apart here. Marks after values point to notes of the source that are not given here.
# Legend:
# ICR mice = test: Test for evaluation of expectorant activity (phenol red in trachea); assay type: in vivo; conditions: 200 mg/kg, oral, male ICR mice
# Experimental: In order to evaluate the expectorant activities of the water and ethanol extracts of Justicia procumbens L., prepared in Preparation Examples 1-1 to 1-2, a test for evaluation of expectorant activity was performed using male ICR mice (weighed 30 to 33 g; Orientbio). Specifically, the extracts and the comparative drug ambroxol (200 mg/kg, Boehringer Ingelheim) were administered orally to the respective groups of mice that fasted the previous day. […] The isolated trachea was freeze-stored in 1 ml of physiological saline for 24 hours. Next, the trachea was sonicated, and 1N NaOH was added to the supernatant (0.1 ml of 1N NaOH per ml of the supernatant). Then, the absorbance at 546 nm was measured and the expectorant activity was measured with the concentration of phenol red.
# splenocytes = test: Inhibition of Concanavalin A-induced splenocyte proliferation (CCK8); assay type: cell-based, Balb/c mice; conditions: Mus musculus, Splenocyte
# Experimental: (§1) The isolated splenocytes were diluted in RPMI medium (containing 10% fetal bovine serum (FBS) and antibiotics (100 U/mL penicillin and 100 μg/mL streptomycin)) at a concentration of 5×10^6 cells/nit, and the cell dilution was dispended in a 24-well plate in an amount of 500 μl/well and in a 96-well plate in an amount of 100 μl/well. The plates were incubated in a 5% CO2 incubator at 37° C. for 48 hours. […] The medium of the 24-well plate was used to measure the degree of secretion of Th2 inflammatory cytokines (IL4 and IL5), and the 96-well plate was used to measure the degree of cell proliferation. First, in order to measure Th2 cytokines, the medium in the 24-well plate was collected and centrifuged at 800×g for 5 minutes, and the supernatant was collected. 100 μl of the supernatant per well was used in IL4 or IL5 enzyme-linked immunosorbent assay (ELISA, Komabiotech Inc.) to measure the degree of secretion of these cytokines. In order to measure the degree of cell proliferation, […] of CCK8 (cell counting kit 8, Donjindo) solution was added to each well of the 96-well plate, and after 4 hours, the absorbance value was measured. The degree of inhibition of spleen cell proliferation by each drug and the degree of inhibition of Th2 cytokine secretion by each drug were calculated using Equation 2 below. For drug synergistic effects, a linear equation was constructed using the concentrations of drugs administered alone as x-coordinates and using drug concentration-dependent inhibition as y-coordinates. Using this linear equation, the concentrations of drugs administered alone, which correspond to inhibition achieved when administered in combination, were calculated, and combination index (CI) was calculated using Equation 3 below. A CI value of less than 1 indicates a synergistic effect, a CI value of 1 indicates an additive effect, and a CI value of more than 1 indicates an antagonistic effect (Liang Zhao et. al., Clinical Cancer Research, 10, 7994-8004, 2004). […]
# IL4 = test: Inhibition of IL4 secretion by Concanavalin A-treated splenocytes (ELISA); assay type: cell-based, Balb/c mice
# Experimental: as §1
# IL5 = test: Inhibition of IL5 secretion by Concanavalin A-treated splenocytes (ELISA); assay type: cell-based, Balb/c mice
# Experimental: as §1
# [1] = test system: Neutrophilic Asthma Balb/c Mouse Models; test: Asthma inhibitory effect in neutrophilic asthma model (ovalbumin + LPS): lung lavage fluid and lung tissue; assay type: in vivo, Balb/c mice; conditions: oral
# Experimental: On 0 and 7 days after 1 week of acclimation, each of the mice was systematically sensitized by intranasally administering 75 μg of ovalbumin and 10 μg of lipopolysaccharide (LPS). 20, 50 or 100 mg/kg of the Justicia procumbens L. prepared in Preparation Example 3 or a positive control (10 mg/kg of dexamethasone and 1 mg/kg of montelukast) was administered orally to the mice On days 14, 15, 21, 22, 28, 29, 35, 36 and 37. One hour after administration, 50 μg of ovalbumin was administered intranasally to the mice. 24 hours after final sensitization (day 37), lung lavage fluid was obtained through tracheostomy, and the lung tissue was isolated. The collected lung lavage fluid was centrifuged at 3000 rpm […], and the supernatant was used to measure physiologically active substances (IL-4, IL-5, and IFN-γ), and the pellets were used to measure the number of inflammatory cells. The physiologically active substances (interleukin-4 (IL-4), interleukin-5 (IL-5), and interferon-gamma (IFN-γ)) in the isolated lung lavage fluid were measured using an enzyme-linked immunosorbent assay (ELISA, IL-4: Komabiotech #K0331144, IL-5: R&D system #M5000, IFN-γ: Komabiotech #K0331138) corresponding to each substance. In addition, the lung lavage fluid pellets were re-dissolved in 0.5 mL of phosphate buffered saline, and 0.1 mL of the solution was added to each well of a 96-well plate and centrifuged at 800 rpm for 5 minutes to attach the cells to the bottom (3 wells per sample). Then, each sample was stained with Diff Quik staining solution (Sysmex), and photographed with a microscope at 2-6 random sites. About 200 cells per sample were counted and the percentage (%) of inflammatory cells of each sample was calculated. The total number of inflammatory cells was measured with a microscope using a hematocytometer, and the number of eosinophils and the number of neutrophils were calculated using the percentage (%) of inflammatory cells of each sample. Staining of the lung tissue was performed in the same manner as described in Example 5 above. Statistical processing was performed using an SPSS program, and a Levene test was performed for a test for equal variance, and significance was tested by one-way analysis (ANOVA).
# [2] = Table 5, 0.5 μM, read-out: Inhibition of splenocyte proliferation (%, n = 3, Mean ± SD)
# [3] = Table 8, Concentration (mM) 0.2
smiles,measurement,setting,value
"Nc1c(Br)cc(Br)cc1CN[C@H]1CC[C@H](O)CC1 [Ambroxol, ambroxol]","Expectoration (%, n = 4, Mean ± SE)",ICR mice,11.4 ± 12.89%
"C[C@@H]1C[C@H]2[C@@H]3CCC4=CC(=O)C=C[C@]4(C)[C@@]3(F)[C@@H](O)C[C@]2(C)[C@@]1(O)C(=O)CO [Dexamethasone, dexamethasone]",inhibition at 0.5 µM,"splenocytes; Table 4, 0.5 μM, read-out: Inhibition of splenocyte proliferation (n = 3, Mean ± SD)",110.3 ± 0.62%
same,inhibition at 0.5 µM,splenocytes; [2],118.7 ± 0.21%
same,inhibition at 0.2 µM,"splenocytes; Table 6, 0.2 μM, read-out: Inhibition of splenocyte proliferation (%, n = 3, Mean ± SD)",94.1 ± 1.8%
same,inhibition at 0.5 µM,"IL4; Mus musculus, Splenocyte, Table 7, 0.5 μM, read-out: Inhibition of IL4 secretion (%, n = 2, Mean ± SD)",100%
same,"Inhibition of IL4 secretion (%, n = 2, Mean ± SD)",IL4; [3],97.8 ± 0.00%
same,inhibition at 0.5 µM,"IL5; Mus musculus, Splenocyte, Table 7, 0.5 μM, read-out: Inhibition of IL5 secretion (%, n = 2, Mean ± SD)",103%
same,"Inhibition of IL5 secretion (%, n = 2, Mean ± SD)",IL5; [3],98.9 ± 0.01%
same,"Epithelium thickness (μm), n = 5, Mean ± S.E.",[1]; 1 mg/kg,"5.0 ± 0.38##, $$ μm"
same,"Lung lavage fluid_IFN-γ (pg/mL), n = 5, Mean ± S.E.",[1]; 1 mg/kg,"1.3 ± 0.61##, $$ pg/mL"
same,"Lung lavage fluid_IL-4 (pg/mL), n = 5, Mean ± S.E.",[1]; 1 mg/kg,32.1 ± 9.51## pg/mL
same,"Lung lavage fluid_IL-5 (pg/mL), n = 5, Mean ± S.E.",[1]; 1 mg/kg,"53.0 ± 13.59##, $$ pg/mL"
same,"Lung lavage fluid_eosinophil number (×10^5), n = 5, Mean ± S.E.",[1]; 1 mg/kg,0.1 ± 0.01## ×10^5
same,"Lung lavage fluid_neutrophil number (×10^5), n = 5, Mean ± S.E.",[1]; 1 mg/kg,0.2 ± 0.02## ×10^5
same,"Lung lavage fluid_total inflammatory cell number (×10^5), n = 5, Mean ± S.E.",[1]; 1 mg/kg,1.3 ± 0.07## ×10^5
same,"Subepithelial smooth muscle thickness (μm), n = 5, Mean ± S.E.",[1]; 1 mg/kg,2.7 ± 0.35 μm
"CC(C)(O)c1ccccc1CC[C@@H](SCC1(CC(=O)O)CC1)c1cccc(/C=C/c2ccc3ccc(Cl)cc3n2)c1 [Montelukast, montelukast]",inhibition at 10 µM,"splenocytes; Table 4, 10 μM, read-out: Inhibition of splenocyte proliferation (n = 3, Mean ± SD)",44.1 ± 4.34%
same,inhibition at 0.5 µM,splenocytes; [2],40.2 ± 2.64%
same,inhibition at 10 µM,"IL4; Mus musculus, Splenocyte, Table 7, 10 μM, read-out: Inhibition of IL4 secretion (%, n = 2, Mean ± SD)",-42.6 ± 0.08%
same,inhibition at 10 µM,"IL5; Mus musculus, Splenocyte, Table 7, 10 μM, read-out: Inhibition of IL5 secretion (%, n = 2, Mean ± SD)",70.2 ± 0.01%
same,"Epithelium thickness (μm), n = 5, Mean ± S.E.",[1]; 10 mg/kg,25.5 ± 1.64 μm
same,"Lung lavage fluid_IFN-γ (pg/mL), n = 5, Mean ± S.E.",[1]; 10 mg/kg,32.2 ± 2.13## pg/mL
same,"Lung lavage fluid_IL-4 (pg/mL), n = 5, Mean ± S.E.",[1]; 10 mg/kg,96.9 ± 14.40## pg/mL
same,"Lung lavage fluid_IL-5 (pg/mL), n = 5, Mean ± S.E.",[1]; 10 mg/kg,194.4 ± 23.1## pg/mL
same,"Lung lavage fluid_eosinophil number (×10^5), n = 5, Mean ± S.E.",[1]; 10 mg/kg,0.7 ± 0.05## ×10^5
same,"Lung lavage fluid_neutrophil number (×10^5), n = 5, Mean ± S.E.",[1]; 10 mg/kg,1.5 ± 0.07## ×10^5
same,"Lung lavage fluid_total inflammatory cell number (×10^5), n = 5, Mean ± S.E.",[1]; 10 mg/kg,4.0 ± 0.25## ×10^5
same,"Subepithelial smooth muscle thickness (μm), n = 5, Mean ± S.E.",[1]; 10 mg/kg,10.7 ± 0.59 μm
